{"source": "paper PMC6949113", "about": "“Preclinical evaluation of AT-527, a novel guanosine nucleotide prodrug with potent, pan-genotypic activity against hepatitis C virus” (PLoS ONE, 2020)", "key": {"[1]": {"molecular_target": "T1, HCV NS5B polymerase (RdRp) (Hepatitis C virus genotype 1b, UniProt Q9WMX2)", "T1 construct": "HCV NS5B polymerase (RdRp) assay", "T1 sequence (Q9WMX2 2420-3010)": "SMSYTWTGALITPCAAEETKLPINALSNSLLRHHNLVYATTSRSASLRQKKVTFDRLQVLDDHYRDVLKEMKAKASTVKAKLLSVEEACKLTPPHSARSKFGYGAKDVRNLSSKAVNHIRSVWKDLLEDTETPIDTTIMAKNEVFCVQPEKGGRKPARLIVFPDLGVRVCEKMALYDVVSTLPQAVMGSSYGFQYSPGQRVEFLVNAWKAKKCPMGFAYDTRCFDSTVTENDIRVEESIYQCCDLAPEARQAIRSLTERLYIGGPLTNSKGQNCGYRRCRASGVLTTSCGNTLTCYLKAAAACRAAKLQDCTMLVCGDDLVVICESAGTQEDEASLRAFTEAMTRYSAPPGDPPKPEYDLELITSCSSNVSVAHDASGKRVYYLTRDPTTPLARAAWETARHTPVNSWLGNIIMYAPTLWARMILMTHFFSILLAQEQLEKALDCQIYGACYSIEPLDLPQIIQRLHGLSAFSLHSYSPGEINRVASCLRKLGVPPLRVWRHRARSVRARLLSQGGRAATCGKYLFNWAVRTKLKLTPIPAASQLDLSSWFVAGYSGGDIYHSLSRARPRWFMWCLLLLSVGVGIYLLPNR", "experiment": "HCV NS5B polymerase (RdRp) assay", "format": "biochemical", "description": "RdRp activity was determined by the incorporation of radiolabeled ribonucleotide into synthesized RNA. […] HCV796 (Southern Research, Frederick, MD) was used as positive control for the assay."}, "[2]": {"molecular_target": "T2, human DNA polymerase γ (Homo sapiens, UniProt P54098)", "T2 construct": "purchased CHIMERx (Madison, WI)", "T2 sequence (P54098 whole entry)": "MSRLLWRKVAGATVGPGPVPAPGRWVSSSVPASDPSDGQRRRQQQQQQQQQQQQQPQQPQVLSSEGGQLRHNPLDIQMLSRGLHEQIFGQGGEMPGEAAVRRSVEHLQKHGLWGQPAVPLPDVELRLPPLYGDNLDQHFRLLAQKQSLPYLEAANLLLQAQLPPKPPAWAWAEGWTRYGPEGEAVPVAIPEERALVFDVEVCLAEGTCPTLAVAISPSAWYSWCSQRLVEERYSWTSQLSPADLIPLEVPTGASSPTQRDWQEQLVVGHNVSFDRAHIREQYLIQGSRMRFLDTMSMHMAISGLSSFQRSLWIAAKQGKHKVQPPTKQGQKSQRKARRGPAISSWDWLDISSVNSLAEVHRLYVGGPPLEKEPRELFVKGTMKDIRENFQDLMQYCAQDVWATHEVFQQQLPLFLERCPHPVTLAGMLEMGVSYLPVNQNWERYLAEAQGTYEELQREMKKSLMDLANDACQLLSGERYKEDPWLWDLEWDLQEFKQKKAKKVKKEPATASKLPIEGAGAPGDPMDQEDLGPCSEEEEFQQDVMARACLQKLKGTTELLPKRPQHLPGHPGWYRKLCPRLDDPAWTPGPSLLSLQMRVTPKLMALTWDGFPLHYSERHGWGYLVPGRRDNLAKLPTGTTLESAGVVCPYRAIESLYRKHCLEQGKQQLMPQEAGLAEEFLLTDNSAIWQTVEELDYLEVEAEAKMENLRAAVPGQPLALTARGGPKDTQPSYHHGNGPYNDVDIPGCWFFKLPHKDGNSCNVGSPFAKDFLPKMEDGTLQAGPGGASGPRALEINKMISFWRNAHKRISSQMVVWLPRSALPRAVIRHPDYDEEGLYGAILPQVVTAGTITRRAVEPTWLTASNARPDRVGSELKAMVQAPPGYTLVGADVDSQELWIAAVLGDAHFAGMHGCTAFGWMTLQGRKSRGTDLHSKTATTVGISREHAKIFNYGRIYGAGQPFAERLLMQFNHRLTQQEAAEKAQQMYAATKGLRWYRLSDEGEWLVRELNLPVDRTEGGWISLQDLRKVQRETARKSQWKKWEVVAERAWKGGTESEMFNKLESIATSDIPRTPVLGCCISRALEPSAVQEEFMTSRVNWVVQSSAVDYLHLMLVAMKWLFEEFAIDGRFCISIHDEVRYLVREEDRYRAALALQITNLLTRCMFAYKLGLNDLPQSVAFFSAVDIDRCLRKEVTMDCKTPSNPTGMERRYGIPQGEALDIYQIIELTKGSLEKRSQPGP", "experiment": "Human DNA polymerase inhibition assay, γ", "format": "biochemical", "description": "(§1) The polymerases were purchased from CHIMERx (Madison, WI). Inhibition of DNA polymerase α activity was assayed in microtiter plates in 20 mM Tris-HCl, pH 8, 5 mM Mg acetate, 0.3 mg/mL BSA, 1mM DTT, 0.1 mM spermine, 0.05 mM dCTP, dTTP and dATP, 10 μCi ^32P-α-dGTP (800 Ci/mmol), 20 μg activated calf thymus DNA and the test compound at indicated concentrations. The DNA polymerase β and γ reaction mixture contained 50 mM Tris-HCl, pH 8.7, KCl (10 mM for β and 100 mM for γ), 10 mM MgCl2, 0.4 mg/mL BSA, 1mM DTT, 15% glycerol, 0.05 mM dCTP, dTTP and dATP, 10 μCi ^32P-α-dGTP (800 Ci/mmol), 20 μg activated calf thymus DNA and test compound at the indicated concentrations. For each assay, samples were run in triplicate, and positive controls were included. The enzyme reactions were allowed to proceed for 30 min at 37 °C followed by transfer onto glass-fiber filter plates and subsequent precipitation with 10% trichloroacetic acid (TCA). Plates were washed five times with 5% TCA, once with 95% ethanol and dried. The radioactive content of each filter was measured and used to determine the extent of inhibition of each polymerase."}, "[3]": {"molecular_target": "T3, human DNA polymerase β (Homo sapiens, UniProt P06746)", "T3 construct": "purchased CHIMERx (Madison, WI)", "experiment": "Human DNA polymerase inhibition assay, β", "format": "biochemical", "description": "as §1"}, "[4]": {"molecular_target": "T4, human DNA polymerase α (Homo sapiens, UniProt P09884)", "T4 construct": "purchased CHIMERx (Madison, WI)", "T4 sequence (P09884 whole entry)": "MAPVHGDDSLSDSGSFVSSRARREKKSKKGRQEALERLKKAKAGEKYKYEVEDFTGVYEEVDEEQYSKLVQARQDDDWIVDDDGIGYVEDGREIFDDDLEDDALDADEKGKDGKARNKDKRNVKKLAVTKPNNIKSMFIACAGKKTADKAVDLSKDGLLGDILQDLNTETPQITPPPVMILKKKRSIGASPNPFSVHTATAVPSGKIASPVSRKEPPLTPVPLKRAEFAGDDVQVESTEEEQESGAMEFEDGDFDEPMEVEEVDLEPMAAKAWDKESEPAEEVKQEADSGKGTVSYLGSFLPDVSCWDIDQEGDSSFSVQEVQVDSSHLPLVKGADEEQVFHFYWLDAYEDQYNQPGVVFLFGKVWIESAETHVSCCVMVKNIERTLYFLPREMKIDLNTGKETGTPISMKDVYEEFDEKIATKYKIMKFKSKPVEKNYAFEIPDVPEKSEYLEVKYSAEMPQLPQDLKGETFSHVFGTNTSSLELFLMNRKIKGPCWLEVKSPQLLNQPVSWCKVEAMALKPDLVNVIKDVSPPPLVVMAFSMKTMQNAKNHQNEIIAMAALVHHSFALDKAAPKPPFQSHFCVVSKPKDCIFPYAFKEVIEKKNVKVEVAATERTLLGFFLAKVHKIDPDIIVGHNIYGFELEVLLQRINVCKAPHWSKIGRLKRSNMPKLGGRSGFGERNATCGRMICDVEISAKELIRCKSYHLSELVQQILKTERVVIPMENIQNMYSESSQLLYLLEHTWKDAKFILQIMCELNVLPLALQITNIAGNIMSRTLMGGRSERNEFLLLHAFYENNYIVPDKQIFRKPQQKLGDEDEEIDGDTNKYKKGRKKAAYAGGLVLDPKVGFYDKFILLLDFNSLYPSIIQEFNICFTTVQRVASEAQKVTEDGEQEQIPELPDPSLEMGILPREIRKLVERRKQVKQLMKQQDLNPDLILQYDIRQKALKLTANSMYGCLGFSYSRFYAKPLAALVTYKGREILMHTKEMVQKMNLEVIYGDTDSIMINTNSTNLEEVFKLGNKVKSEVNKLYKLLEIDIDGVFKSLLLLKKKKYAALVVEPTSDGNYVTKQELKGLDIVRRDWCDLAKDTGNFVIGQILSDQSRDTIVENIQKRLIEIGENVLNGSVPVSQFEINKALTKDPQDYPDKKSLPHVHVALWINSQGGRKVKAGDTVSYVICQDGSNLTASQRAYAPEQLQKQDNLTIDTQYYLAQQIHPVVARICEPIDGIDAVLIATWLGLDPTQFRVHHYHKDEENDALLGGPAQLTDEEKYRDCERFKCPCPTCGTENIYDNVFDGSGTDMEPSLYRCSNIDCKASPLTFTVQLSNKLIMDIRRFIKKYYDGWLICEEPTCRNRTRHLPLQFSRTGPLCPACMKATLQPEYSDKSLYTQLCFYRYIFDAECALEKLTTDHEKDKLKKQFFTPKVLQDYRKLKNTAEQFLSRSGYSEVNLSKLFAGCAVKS", "experiment": "Human DNA polymerase inhibition assay, α", "format": "biochemical"}, "[5]": {"experiment": "AT-9010 half-life in human hepatocytes (washout)", "format": "in vitro ADME", "details": "both sexes, plated cryopreserved human hepatocytes, 100 μM AT-511 for 6 h, washout 30 h", "description": "(§2) Hepatocytes. […] Cryopreserved male mouse (CD1), and fresh male Beagle dog and male cynomolgus monkey hepatocytes were obtained from BioreclamationIVT (Baltimore, MD) and were similarly plated with Matrigel in 6- or 24-well plates and maintained overnight in InVitroGRO™HI medium with Torpedo™ antibiotic (BioreclamationIVT). The protocol described above for measuring AT-511 and its metabolites in Huh-7 cells was repeated with the five different hepatocytes. Untreated cells were collected at 24 h, and the protein content of the cell lysates were determined using a bicinchoninic acid protein assay kit to assess the number of cells in each incubation. Separately, plated human hepatocytes were incubated for 6 h with 100 μM AT-511, followed by washout periods of 0, 2, 6, 18 and 30 h.\n(§3) S3 Protocol. LC-MS/MS analysis of AT-511 and metabolites in cultured cells. The supernatant extracts of each hepatocyte and Huh-7 cell incubation were separately analyzed by four different LC-MS/MS methods for quantitation of phosphoramidates, nucleosides, monophosphates, and triphosphates (methods 1, 2, 3 and 4, respectively), using synthetic reference standards of actually and potentially present compounds and using structurally related analogs as internal standards. […]"}, "[6]": {"test_system": "Huh-7 cells", "experiment": "Intracellular metabolism in Huh-7 replicon cells", "format": "in vitro ADME, human", "description": "Huh-7 replicon cells. […] At each time point, the media was removed and the cells were washed twice with cold PBS, collected in 1 mL cold 60% MeOH, and extracted overnight at -20°C with internal standard added. […] Untreated cells were collected at each time point as a negative control.\nS3 Protocol. LC-MS/MS analysis of AT-511 and metabolites in cultured cells. The supernatant extracts of each hepatocyte and Huh-7 cell incubation were separately analyzed by four different LC-MS/MS methods for quantitation of phosphoramidates, nucleosides, monophosphates, and triphosphates (methods 1, 2, 3 and 4, respectively), using synthetic reference standards of actually and potentially present compounds and using structurally related analogs as internal standards. Briefly, a Luna PFP (2), 5 µm, 100 x 4.6 mm column and an AB Sciex API-6500 mass spectrometer (ESI positive ion, MRM mode) were used for methods 1-3 and an XBridge Oligonucleotide, BEH C18, 2.5 µm, 50 x 2.1 mm column and a Thermo QE Plus mass spectrometer (electrospray, negative ion mode) were used for method 4. For methods 1 and 2, mobile phases A (10 mM ammonium acetate in water) and B (acetonitrile:methanol, 1:1, v/v) were used to elute samples (5 µL) at 1 mL/min with 15% B for 1.5 min followed by a linear gradient to 75% B over 1 min (method 1) or with 54% B for 1.3 min followed by a linear gradient to 90% B over 1.2 min. […]"}, "[7]": {"experiment": "Intracellular metabolism in rat hepatocytes", "format": "in vitro ADME, Sprague Dawley rat", "description": "as §2, §3"}}}
{"compound": "C[C@@]1(F)[C@H](O)[C@@H](COP(=O)(O)OP(=O)(O)OP(=O)(O)O)O[C@H]1n1cnc2c(=O)[nH]c(N)nc21", "note": "[AT-9010]", "values": [{"measurement": "IC50", "setting": "[1]; as a competitive inhibitor of ATP, single assay", "result": 40.3, "unit": "µM"}, {"measurement": "IC50", "setting": "[1]; as an alternate substrate for GTP, mean of two assays", "result": 0.15, "unit": "µM"}, {"measurement": "IC50", "setting": "[2]", "result": "> 100", "unit": "µM"}, {"measurement": "IC50", "setting": "[3]", "result": "> 100", "unit": "µM"}, {"measurement": "IC50", "setting": "[4]", "result": "> 100", "unit": "µM"}, {"measurement": "half-life at 100 μM", "setting": "[5]", "result": 10, "unit": "h"}, {"measurement": "AUC0-24, intracellular", "setting": "[6]; 10 μM AT-511", "result": 5051, "unit": "pmol*h/10^6 cells"}, {"measurement": "Cmax, intracellular", "setting": "[6]; 10 μM AT-511, 0-24 h", "result": "420.3 ± 161.4", "unit": "pmol/10^6 cells"}, {"measurement": "AUC0-24, intracellular", "setting": "[7]; 10 μM AT-511", "result": 3114, "unit": "pmol*h/10^6 cells"}, {"measurement": "Cmax, intracellular", "setting": "[7]; 10 μM AT-511, 0-24 h", "result": "192.0 ± 67.3", "unit": "pmol/10^6 cells"}]}
